Data from patent US20260049088A1, “TRICYCLIC HETEROCYCLIC DERIVATIVES, COMPOSITIONS AND USES THEREOF” (Danatlas Pharmaceuticals Co., Ltd., priority 2023, published 2026).
pIC50: −log10 of the molar value.

Target: T1, hPARG (Homo sapiens, UniProt Q86W56)
T1 construct: made in house; host or cells: E. coli
Assay: PARG enzymatic activity assay (HTRF)
Type: biochemical
Conditions: C-terminal His6-tag hPARG 65 pM, biotinylated-NAD ribosylated PARP1 substrate 8 nM
Protocol: HTRF assay was used to measure the ability of compounds to inhibit the activity of […] in vitro. C-terminal His6—tag PARG expressed in E. coli was purified and stored at −80° C. in aliquots. Assay measurements were performed with 1×buffer comprising 50 mM Tris pH 7.4, 0.1 mg/mL BSA, 3 mM EDTA, 0.4 mM EGTA, 1 mM DTT, 50 mM KCl and 0.01% Tween 20. Compounds dissolved in DMSO were plated into a 384-well assay plate (PerkinElmer, Catalog #: 6008280) in duplicate using a dispenser (Labcyte, Echo 665), and tested on a 10-point 4-fold serial dilution. Add 5 μL Enzyme mix [hPARG (C-terminal His6—tag, 4.2 μM), 65 pM final] to the test wells. The plates were covered and left to incubate for 60 minutes at RT before the addition of 5 μL substrate mix [biotinylated-NAD ribosylated PARP1 (6.1 μM), 8 nM final] to initiate reaction. After incubating 10 minutes at RT, add 2.5 μL Streptavidin-Eu cryptate (Cisbio, Catalog #: 610SAKLA) and 2.5 μL Mab anti 6HIS-XL665 (Cisbio, Catalog #: 61HISXLA) to the plate, and incubate for 60 minutes at RT. Read on a multimode plate reader (PerkinElmer, Envision 2015) in time-resolved fluorescence (TRF) mode, with excitation at 337 nm and emission at both 620 nm and 665 nm. Average HTRF signal of high control (Wells with 1% DMSO) was calculated and as Vehicle Control (VC). Average HTRF signal of low control (no Enzyme) was calculated and as Positive control (PC).
IC50 values were determined by fitting the data to the standard 4 parameters with Hill Slope using GraphPad Prism software.

T1 sequence (Q86W56 whole entry): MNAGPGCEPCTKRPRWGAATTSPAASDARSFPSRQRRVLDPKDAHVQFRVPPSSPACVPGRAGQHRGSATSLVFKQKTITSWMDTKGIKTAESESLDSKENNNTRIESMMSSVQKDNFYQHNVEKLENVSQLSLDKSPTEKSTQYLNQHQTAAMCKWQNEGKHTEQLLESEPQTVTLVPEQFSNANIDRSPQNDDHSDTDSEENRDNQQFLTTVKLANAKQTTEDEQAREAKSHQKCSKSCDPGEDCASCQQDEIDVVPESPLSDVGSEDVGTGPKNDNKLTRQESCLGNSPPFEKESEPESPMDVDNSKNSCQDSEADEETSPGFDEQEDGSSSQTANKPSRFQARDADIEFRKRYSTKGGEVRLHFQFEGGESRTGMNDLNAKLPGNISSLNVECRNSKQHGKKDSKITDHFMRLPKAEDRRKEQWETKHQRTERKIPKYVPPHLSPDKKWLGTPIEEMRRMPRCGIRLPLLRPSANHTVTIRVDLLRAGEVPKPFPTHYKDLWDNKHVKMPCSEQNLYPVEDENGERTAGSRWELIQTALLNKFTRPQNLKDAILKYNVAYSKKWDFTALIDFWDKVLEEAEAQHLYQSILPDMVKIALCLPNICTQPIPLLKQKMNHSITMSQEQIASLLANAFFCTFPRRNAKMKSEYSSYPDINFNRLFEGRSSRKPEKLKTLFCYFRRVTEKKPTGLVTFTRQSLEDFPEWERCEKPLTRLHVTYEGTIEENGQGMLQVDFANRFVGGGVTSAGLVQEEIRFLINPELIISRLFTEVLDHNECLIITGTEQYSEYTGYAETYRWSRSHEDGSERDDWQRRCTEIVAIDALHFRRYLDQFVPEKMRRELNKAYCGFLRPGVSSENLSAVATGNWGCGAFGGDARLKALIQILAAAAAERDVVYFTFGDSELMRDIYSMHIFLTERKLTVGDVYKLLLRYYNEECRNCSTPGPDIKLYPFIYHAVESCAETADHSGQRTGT

Compound | pIC50
CCN[C@@H]1CCN(c2ncnc3c2c2ccc(S(=O)(=O)NC4(C#N)CC4)cc2n3-c2nnc(C(F)F)s2)C[C@@H]1F [Example 93, N-(1-Cyanocyclopropyl)-9-(5-(difluoromethyl)-1,3,4-thiadiazol-2-yl)-4-((3S,4R)-4-(ethylamino)-3-fluoropiperidin-1-yl)-9H-pyrimido[4,5-b]indole-7-sulfonamide] | ≥ 7.00
CCN(CC)[C@H]1CCN(c2ncnc3c2c2ccc(S(=O)(=O)NC4(C#N)CC4)cc2n3-c2nnc(C(F)F)s2)C[C@@H]1F [Example 32, N-(1-Cyanocyclopropyl)-4-((3S,4S)-4-(diethylamino)-3-fluoropiperidin-1-yl)-9-(5-(difluoromethyl)-1,3,4-thiadiazol-2-yl)-9H-pyrimido[4,5-b]indole-7-sulfonamide] | ≥ 7.00
CCN(CC)[C@@H]1CCN(c2ncnc3c2c2ccc(S(=O)(=O)NC4(C#N)CC4)cc2n3-c2nnc(C(F)F)s2)C[C@H]1F [Example 35, N-(1-Cyanocyclopropyl)-4-((3R,4R)-4-(diethylamino)-3-fluoropiperidin-1-yl)-9-(5-(difluoromethyl)-1,3,4-thiadiazol-2-yl)-9H-pyrimido[4,5-b]indole-7-sulfonamide] | ≥ 7.00
CCN1CCC2CN(c3ncnc4c3c3ccc(S(=O)(=O)NC5(C#N)CC5)cc3n4-c3nnc(C(F)F)s3)CCC21 (centres unmarked) [Example 38, N-(1-Cyanocyclopropyl)-9-(5-(difluoromethyl)-1,3,4-thiadiazol-2-yl)-4-(1-ethyloctahydro-5H-pyrrolo[3,2-c]pyridin-5-yl)-9H-pyrimido[4,5-b]indole-7-sulfonamide] | ≥ 7.00
CN(C[C@H]1CCOC1)c1ncnc2c1c1ccc(S(=O)(=O)NC3(C#N)CC3)cc1n2-c1nnc(C(F)F)s1 [Example 57, (R)-N-(1-Cyanocyclopropyl)-9-(5-(difluoromethyl)-1,3,4-thiadiazol-2-yl)-4-(methyl((tetrahydrofuran-3-yl)methyl)amino)-9H-pyrimido[4,5-b]indole-7-sulfonamide] | ≥ 7.00
CCc1cnc2n1CCN(c1ncnc3c1c1ccc(S(=O)(=O)NC4(C#N)CC4)cc1n3-c1nnc(C(F)F)s1)C2 [Example 54, N-(1-Cyanocyclopropyl)-9-(5-(difluoromethyl)-1,3,4-thiadiazol-2-yl)-4-(3-ethyl-5,6-dihydroimidazo[1,2-a]pyrazin-7(8H)-yl)-9H-pyrimido[4,5-b]indole-7-sulfonamide] | ≥ 7.00
N#CC1(NS(=O)(=O)c2ccc3c4c(SCCN5CCOCC5)ncnc4n(-c4nnc(C(F)F)s4)c3c2)CC1 [Example 83, N-(1-Cyanocyclopropyl)-9-(5-(difluoromethyl)-1,3,4-thiadiazol-2-yl)-4-((2-morpholinoethyl)thio)-9H-pyrimido[4,5-b]indole-7-sulfonamide] | 6.00 to 7.00
CN(C)[C@H]1CCCC[C@@H]1N(C)c1ncnc2c1c1ccc(S(=O)(=O)NC3(C#N)CC3)cc1n2-c1nnc(C(F)F)s1 [Example 74, N-(1-Cyanocyclopropyl)-9-(5-(difluoromethyl)-1,3,4-thiadiazol-2-yl)-4-(((1S,2S)-2-(dimethylamino)cyclohexyl)(methyl)amino)-9H-pyrimido[4,5-b]indole-7-sulfonamide] | ≥ 7.00
COCCSc1ncnc2c1c1ccc(S(=O)(=O)NC3(C#N)CC3)cc1n2-c1nnc(C(F)F)s1 [Example 84, N-(1-Cyanocyclopropyl)-9-(5-(difluoromethyl)-1,3,4-thiadiazol-2-yl)-4-((2-methoxyethyl)thio)-9H-pyrimido[4,5-b]indole-7-sulfonamide] | 6.00 to 7.00
CN(C)C(=O)N1CCN(CCOc2ncnc3c2c2ccc(S(=O)(=O)NC4(C#N)CC4)cc2n3-c2nnc(C(F)F)s2)CC1 [Example 5, 4-(2-((7-(N-(1-Cyanocyclopropyl)sulfamoyl)-9-(5-(difluoromethyl)-1,3,4-thiadiazol-2-yl)-9H-pyrimido[4,5-b]indol-4-yl)oxy)ethyl)-N,N-dimethylpiperazine-1-carboxamide] | ≥ 7.00
CCN(CC)C1C[C@H]2C[C@@H]1CN2c1ncnc2c1c1ccc(S(=O)(=O)NC3(C#N)CC3)cc1n2-c1nnc(C(F)F)s1 (stereo partly drawn) [Example 39, N-(1-Cyanocyclopropyl)-4-((1R,4R)-5-(diethylamino)-2-azabicyclo[2.2.1]heptan-2-yl)-9-(5-(difluoromethyl)-1,3,4-thiadiazol-2-yl)-9H-pyrimido[4,5-b]indole-7-sulfonamide] | ≥ 7.00

The next lines start with the values.

pIC50 | Compound
≥ 7.00 | CSc1ncnc2c1c1ccc(S(=O)(=O)NC3(C#N)CC3)cc1n2-c1nnc(C(F)F)s1 [Example 25, N-(1-cyanocyclopropyl)-9-(5-(difluoromethyl)-1,3,4-thiadiazol-2-yl)-4-(methylthio)-9H-pyrimido[4,5-b]indole-7-sulfonamide]
≥ 7.00 | CN(CC(=O)N1CCOCC1)c1ncnc2c1c1ccc(S(=O)(=O)NC3(C#N)CC3)cc1n2-c1nnc(C(F)F)s1 [Example 20, N-(1-Cyanocyclopropyl)-9-(5-(difluoromethyl)-1,3,4-thiadiazol-2-yl)-4-(methyl(2-morpholino-2-oxoethyl)amino)-9H-pyrimido[4,5-b]indole-7-sulfonamide]
≥ 7.00 | CN(C)CCN(C)c1ncnc2c1c1ccc(S(=O)(=O)NC3(C#N)CC3)cc1n2-c1nnc(C(F)F)s1 [Example 62, N-(1-Cyanocyclopropyl)-9-(5-(difluoromethyl)-1,3,4-thiadiazol-2-yl)-4-((2-(dimethylamino)ethyl)(methyl)amino)-9H-pyrimido[4,5-b]indole-7-sulfonamide]
≥ 7.00 | CN1CCN(c2ncnc3c2c2ccc(S(=O)(=O)NC4(C#N)CC4)cc2n3-c2nnc(C(F)F)s2)CC12CC2 [Example 48, N-(1-Cyanocyclopropyl)-9-(5-(difluoromethyl)-1,3,4-thiadiazol-2-yl)-4-(4-methyl-4,7-diazaspiro[2.5]octan-7-yl)-9H-pyrimido[4,5-b]indole-7-sulfonamide]
≥ 7.00 | N#CC1(NS(=O)(=O)c2ccc3c4c(/C=C/CN5CCOCC5)ncnc4n(-c4nnc(C(F)F)s4)c3c2)CC1 [Example 85, (E)-N-(1-Cyanocyclopropyl)-9-(5-(difluoromethyl)-1,3,4-thiadiazol-2-yl)-4-(3-morpholinoprop-1-en-1-yl)-9H-pyrimido[4,5-b]indole-7-sulfonamide]
≥ 7.00 | CN(CC1CCCN1C)c1ncnc2c1c1ccc(S(=O)(=O)NC3(C#N)CC3)cc1n2-c1nnc(C(F)F)s1 (centres unmarked) [Example 80, N-(1-Cyanocyclopropyl)-9-(5-(difluoromethyl)-1,3,4-thiadiazol-2-yl)-4-(methyl((1-methylpyrrolidin-2-yl)methyl)amino)-9H-pyrimido[4,5-b]indole-7-sulfonamide]
6.00 to 7.00 | CN(CCn1ccnc1)c1ncnc2c1c1ccc(S(=O)(=O)NC3(C#N)CC3)cc1n2-c1nnc(C(F)F)s1 [Example 59, 4-((2-(1H-Imidazol-1-yl)ethyl)(methyl)amino)-N-(1-cyanocyclopropyl)-9-(5-(difluoromethyl)-1,3,4-thiadiazol-2-yl)-9H-pyrimido[4,5-b]indole-7-sulfonamide]
≥ 7.00 | CN(C[C@@H]1CCOC1)c1ncnc2c1c1ccc(S(=O)(=O)NC3(C#N)CC3)cc1n2-c1nnc(C(F)F)s1 [Example 56, (S)-N-(1-Cyanocyclopropyl)-9-(5-(difluoromethyl)-1,3,4-thiadiazol-2-yl)-4-(methyl((tetrahydrofuran-3-yl)methyl)amino)-9H-pyrimido[4,5-b]indole-7-sulfonamide]
≥ 7.00 | CCN1CCCC12CCN(c1ncnc3c1c1ccc(S(=O)(=O)NC4(C#N)CC4)cc1n3-c1nnc(C(F)F)s1)CC2 [Example 52, N-(1-Cyanocyclopropyl)-9-(5-(difluoromethyl)-1,3,4-thiadiazol-2-yl)-4-(1-ethyl-1,8-diazaspiro[4.5]decan-8-yl)-9H-pyrimido[4,5-b]indole-7-sulfonamide]
≥ 7.00 | C[C@@H]1CCCN(c2ncnc3c2c2ccc(S(=O)(=O)NC4(C#N)CC4)cc2n3-c2nnc(C(F)F)s2)C1 [Example 81, (R)-N-(1-Cyanocyclopropyl)-9-(5-(difluoromethyl)-1,3,4-thiadiazol-2-yl)-4-(3-methylpiperidin-1-yl)-9H-pyrimido[4,5-b]indole-7-sulfonamide]
≥ 7.00 | CN(CCO)c1ncnc2c1c1ccc(S(=O)(=O)NC3(C#N)CC3)cc1n2-c1nnc(C(F)F)s1 [Example 63, N-(1-Cyanocyclopropyl)-9-(5-(difluoromethyl)-1,3,4-thiadiazol-2-yl)-4-((2-hydroxyethyl)(methyl)amino)-9H-pyrimido[4,5-b]indole-7-sulfonamide]
≥ 7.00 | CN(CCCN1CCOCC1)c1ncnc2c1c1ccc(S(=O)(=O)NC3(C#N)CC3)cc1n2-c1nnc(C(F)F)s1 [Example 17, N-(1-Cyanocyclopropyl)-9-(5-(difluoromethyl)-1,3,4-thiadiazol-2-yl)-4-(methyl(3-morpholinopropyl)amino)-9H-pyrimido[4,5-b]indole-7-sulfonamide]
